EP1100483B1, “GLUCOCORTICOID-SELECTIVE ANTI-INFLAMMATORY AGENTS” (Abbott Laboratories, priority 1998, dated 2000)

Target: T1, human estrogen receptor-alpha (Homo sapiens, UniProt P03372)
T1 construct: made in house; host or cells: yeast strain BJ2168, copper-induced
T1 sequence (P03372 1-595): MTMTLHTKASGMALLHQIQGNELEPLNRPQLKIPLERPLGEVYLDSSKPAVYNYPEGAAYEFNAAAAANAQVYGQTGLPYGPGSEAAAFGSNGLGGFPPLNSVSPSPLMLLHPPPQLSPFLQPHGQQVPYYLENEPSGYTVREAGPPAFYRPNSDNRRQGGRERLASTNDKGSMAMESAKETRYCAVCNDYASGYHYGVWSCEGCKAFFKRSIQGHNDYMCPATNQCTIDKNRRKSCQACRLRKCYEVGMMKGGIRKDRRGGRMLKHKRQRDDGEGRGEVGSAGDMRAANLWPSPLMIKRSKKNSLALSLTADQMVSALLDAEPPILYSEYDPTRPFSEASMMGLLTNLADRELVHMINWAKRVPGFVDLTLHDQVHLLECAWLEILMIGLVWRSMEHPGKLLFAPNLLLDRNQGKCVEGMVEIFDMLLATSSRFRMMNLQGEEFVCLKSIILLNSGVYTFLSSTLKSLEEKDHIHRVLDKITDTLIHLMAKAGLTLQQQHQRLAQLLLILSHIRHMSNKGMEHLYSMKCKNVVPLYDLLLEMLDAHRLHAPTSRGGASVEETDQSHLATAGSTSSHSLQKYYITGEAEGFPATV
Assay: soluble estrogen receptor-alpha (ER-α) binding assay, [3H]-estradiol competition
Conditions: 2-3 nM [3H]-estradiol, 4 °C for 18 hours; Cheng-Prusoff
Description: For soluble estrogen receptor-alpha (ER-α) binding assays, [^3H]- Estradiol (120-140 Ci/mmol) was purchased from New England Nuclear (Boston, MA), 17-beta estradiol was purchased from Sigma Chemical Co. (St. Louis, MO), CHAPS and DTT were purchased from Boehringer Mannheim GmbH (W. Germany) and all other reagents were purchased from Sigma.
The human estrogen receptor-alpha cDNA was cloned into a yeast vector termed pYhERα and used to transform wild type yeast strain BJ2168 following the protocol outlined by Pham, T.A., Hwung Y.P., Santiso-Mere, D., McDonnell D.P., O'Malley, B.W., Ligand-Dependent and Independent Function of the Transactivation Regions of the Human Estrogen Receptor in Yeast, Mol. Endocrinol. 1992, 6, 1043-1050, hereby incorporated by reference. The yeast was induced with copper for 16 hours after which the cells were harvested, washed and the receptor extract prepared in cold buffer via a Bead Beater (BioSpec Products , Bartlesville, OK). Aliquots of the receptor typically contained 5-10 mg/ml of total protein and were stored at -80 °C until used. Estradiol or other competing compounds were prepared as 5 mM stock solutions in either 100% ethanol or DMSO and serial dilutions were carried out in 1:1 DMSO-ethanol. The assay buffer consisted of the following: 300 mM potassium chloride, 10 mM Trizma Base, 2 mM DTT and 5 mM CHAPS , pH=7.5 at room temperature.
Receptor assays were performed in a 250 µL final volume containing from 5-10 µg of extract protein, plus 2-3 nM [^3H]-estradiol and varying concentrations of competing ligand (0 to 10,000 nM). Assays were set up using a 96-well minitube system and incubations were carried out at 4 °C for 18 hours. Equilibrium under these conditions of buffer and temperature was achieved by 6-8 hours. Nonspecific binding was defined as that binding remaining in the presence of 1000 nM unlabeled estradiol. At the end of the incubation period, 200 µL of 6.25% hydroxyapatite was added in wash buffer (binding buffer in the absence of DTT but containing 1 mM CHAPS). Specific ligand binding to receptor was determined by a hydroxyapatite-binding assay according to the protocol outlined by Wecksler, W.R., Norman, A.W, An Hydroxylapatite Batch Assay for the Quantitation of 1α, 25-Dihydroxyvitamin D3-Receptor Complexes. Anal. Biochem. 1979, 92, 314-323, hereby incorporated by reference. Hydroxyapatite absorbs the receptor-ligand complex, allowing for the separation of bound from free radiolabeled ligand. The mixture was vortexed, incubated for 10 minutes at 4 °C, centrifuged, and the supernatant was removed. The hydroxyapatite pellet was washed twice more with the wash buffer. The amount of receptor-ligand complex was determined by liquid scintillation counting of the hydroxyapatite pellet after the addition of […] EcoScint A scintillation cocktail from National Diagnostics (Atlanta, GA.).
After correcting for nonspecific binding, IC50 values were determined. […] The IC50 values were determined graphically from a log-logit plot of the data. […] Standards are included in each assay and resulting Ki values are determined by use of a modified Cheng-Prusoff equation and used to calculate Ki values for "unknown analogs", DeBlasi, A., O'Reilly, K., Motulsky, H.J., Calculating Receptor Number from Binding Experiments Using Same Compound As Radioligand and Competitor, TIPS 1989, 10, 227-229, hereby incorporated by reference.

| Compound | Ki [nM] |
| --- | --- |
| CNc1ccc(C(c2ccc(NC)cc2)c2cc([N+](=O)[O-])ccc2Cl)cc1 [Example 23, 4',4" bis(methylamino)-2-chloro-5-nitrotriphenylmethane] | > 10000 |
| CNc1ccc(C(c2ccc(NC)cc2)c2cc(Cl)ccc2Cl)cc1 [Example 27, 4',4" bis(methylamino)-2,5-dichlorotriphenylmethane] | > 10000 |
| O=[N+]([O-])c1ccc(Cl)c(C(c2ccc(NCc3ccccc3)cc2)c2ccc(NCc3ccccc3)cc2)c1 [Example 36, 4',4" bis(N-benzylamino)-2-chloro-5-nitrotriphenylmethane] | > 10000 |
| CNc1ccc(C(c2ccc(N(C)C)cc2)c2cc([N+](=O)[O-])ccc2Cl)cc1 (stereo not drawn) [Example 39, 4'-dimethylamino-4"-methylamino-2-chloro-5-nitrotriphenylmethane] | > 10000 |
| CN(C)c1ccc(C(c2ccc(N(C)CCO)cc2)c2cc([N+](=O)[O-])ccc2Cl)cc1 (stereo not drawn) [Example 42, 4'-dimethylamino-4"-(N-methyl-N-(2-hydroxyethyl)amino)-2-chloro-5-nitrotriphenylmethane] | > 10000 |
| CNc1ccc(C(c2ccc(N(C)CCOC(C)=O)cc2)c2cc([N+](=O)[O-])ccc2Cl)cc1 (stereo not drawn) [Example 49, 4'-methylamino-4"-(N-(2-acetoxyethyl)-N-methylamino)-2-chloro-5-nitrotriphenylmethane] | > 10000 |
| CC(=O)OCCN(C)c1ccc(C(c2ccc(N(C)C)cc2)c2cc([N+](=O)[O-])ccc2Cl)cc1 (stereo not drawn) [Example 51, 4'-dimethylamino-4"-(N-methyl-N-(2-acetoxyethyl)amino)-2-chloro-5-nitrotriphenylmethane] | > 10000 |
| CN(C)c1ccc(C(Oc2ccccc2)c2cc([N+](=O)[O-])ccc2Cl)cc1 (stereo not drawn) [Example 52, phenyl-[(4'-dimethylaminophenyl)-(2-chloro-5-nitrophenyl)methyl] ether] | > 10000 |
| CN(C)c1ccc(C(Sc2ccccc2)c2cc([N+](=O)[O-])ccc2Cl)cc1 (stereo not drawn) [Example 54, phenyl-[(4'-dimethylaminophenyl)-(2-chloro-5-nitrophenyl)methyl]thioether] | > 10000 |
